Laboratory results taken from the supplement of paper PMC10307832.

Columns and labels:
Assay in all cases: relative viability (nuclei count vs DMSO), 5 days (fraction); higher = more cells survive
[1] = compound: C[C@@]1(C(=O)Nc2ccc(F)nc2)CCCN1c1nc(Nc2cc(C3CC3)n[nH]2)c2cccn2n1 + Nc1nc2[nH]cc(CCc3ccc(C(=O)N[C@@H](CCC(=O)O)C(=O)O)cc3)c2c(=O)[nH]1 [Pemetrexed] (partner 0.2 µM)
In short: (§1)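 A single step with final 0.05% Triton X-100, 1% formaldehyde and 1 ug/ml Hoechst fixed the cells and stained nuclei 5 days after treatment. Lung cancer cell lines in 1536-well plates had been treated by pin tool the day after seeding with one drug alone or a fixed anchor-drug dose plus five library-drug doses (not always all listed) in √10 steps, and nuclei were counted on 4× images. Relative viability is the ratio of nuclei in treated wells to nuclei in vehicle wells, taken as the median of duplicate plates.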

Motesanib + OSI-027 = compound: CC1(C)CNc2cc(NC(=O)c3cccnc3NCc3ccncc3)ccc21 [Motesanib] + COc1cccc2cc(-c3nc([C@H]4CC[C@H](C(=O)O)CC4)n4ncnc(N)c34)[nH]c12 [OSI-027] (partner 0.5 µM)
In short: as §1

[2] = compound: C[C@@]1(C(=O)Nc2ccc(F)nc2)CCCN1c1nc(Nc2cc(C3CC3)n[nH]2)c2cccn2n1
In short: (§2)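 Following overnight incubation at 37 °C, lung cancer cell lines in 1536-well plates were pinned with five library-drug doses (not always all listed) in √10 steps on vehicle-anchored plates. The cells then spent 5 days without medium change before a combined fix, permeabilisation and Hoechst stain, 4× imaging and MetaXpress nuclear counts. Viability is the treated-to-vehicle ratio of nuclei, taken as the median across plates. Only plates with control CV below 25% and at least one doubling passed.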

Motesanib = compound: CC1(C)CNc2cc(NC(=O)c3cccnc3NCc3ccncc3)ccc21 [Motesanib]
In short: as §2

| Cell Line | relative viability ([1]; first compound 0.04 µM) | relative viability ([1]; first compound 0.1265 µM) | relative viability ([1]; first compound 0.4 µM) | relative viability ([1]; first compound 1.265 µM) | relative viability (Motesanib + OSI-027; first compound 0.01 µM) | relative viability (Motesanib + OSI-027; first compound 0.03162 µM) | relative viability (Motesanib + OSI-027; first compound 0.1 µM) | relative viability (Motesanib + OSI-027; first compound 0.3162 µM) | relative viability (Motesanib + OSI-027; first compound 1 µM) | relative viability ([2]; 0.04 µM) | relative viability ([2]; 0.1265 µM) | relative viability ([2]; 0.4 µM) | relative viability ([2]; 1.265 µM) | relative viability (Motesanib; 0.01 µM) | relative viability (Motesanib; 0.03162 µM) | relative viability (Motesanib; 0.1 µM) | relative viability (Motesanib; 0.3162 µM) | relative viability (Motesanib; 1 µM) |
| --- | --- | --- | --- | --- | --- | --- | --- | --- | --- | --- | --- | --- | --- | --- | --- | --- | --- | --- |
| SK-MES-1 | 0.948 | 0.93 | 0.838 | 0.796 | 0.611 | 0.59 | 0.661 | 0.648 | 0.564 | 1.03 | 0.955 | 0.796 | 0.921 | 1.01 | 1.02 | 1.06 | 1.01 | 1.02 |
| SW 900 | 0.439 | 0.492 | 0.476 | 0.467 | 0.65 | 0.515 | 0.651 | 0.61 | 0.656 | 0.746 | 0.727 | 0.81 | 0.673 | 0.834 | 0.782 | 0.809 | 0.9 | 0.799 |
| SW 1573 | 0.847 | 0.749 | 0.803 | 0.244 | 0.561 | 0.583 | 0.549 | 0.736 | 0.709 | 0.824 | 0.762 | 0.697 | 0.672 | 0.998 | 0.894 | 0.977 | 1.05 | 1.15 |
